Assays:
[1] = Inhibition of human recombinant aldose reductase 2 expressed in Escherichia coli BL21 after 10 mins by spectrophotometry analysis
[2] = target: Aldehyde reductase AKR1A1 (Homo sapiens); experiment: Inhibition of human recombinant aldehyde reductase after 10 mins by spectrophotometry analysis

SMILES: O=C(O)Cn1cc(Cc2nc3c(F)c(F)cc(F)c3s2)c2cccnc21
- IC50 [1]: 7 nM

SMILES: Cc1ccc2c(Cc3nc4c(F)c(F)cc(F)c4s3)cn(CC(=O)O)c2n1
- IC50 [1]: 8 nM
- IC50 [2]: > 100000 nM

SMILES: CCc1ccc2c(Cc3nc4c(F)c(F)cc(F)c4s3)cn(CC(=O)O)c2n1
- IC50 [1]: 12 nM

SMILES: O=C(O)Cn1cc(Cc2nc3c(F)c(F)cc(F)c3s2)c2ccccc21 [LIDORESTAT]
- IC50 [1]: 5 nM

Reference: ChEMBL document CHEMBL1777666 (Bioorg Med Chem Lett, 2009)
